Laboratory results published in US20130310379A1, “MODULATORS OF METHYL MODIFYING ENZYMES, COMPOSITIONS AND USES THEREOF” (CONSTELLATION PHARMACEUTICALS, priority 2010, published 2013).

target: EZH2 (Homo sapiens, UniProt Q15910); assay: EZH2 assay: rPRC2 with biotinylated oligonucleosome substrates and 3H SAM, FlashPlate scintillation counting, IC50; format: biochemical; conditions: rPRC2, biotinylated oligonucleosome substrates, 3H SAM; read-out: EZH2 IC50
Description: Assays were carried out by mixing rPRC2 together with biotinylated oligonucleosome substrates in the presence of the radio-labeled enzyme co-factor, S-adenosyl-L-methionine (^3H SAM) (Perkin Elmer) and monitoring the enzymatically mediated transfer of tritiated methyl groups from ^3H SAM to histone lysine residues. The amount of resulting tritated methylhistone product was measured by first capturing the biotinylated oligonuclesomes in streptavidin (SAV) coated FlashPlates (Perkin Elmer), followed by a wash step to remove un-reacted ^3H SAM, and then counting on a TopCount NXT 384 well plate scintillation counter (Perkin Elmer). The final assay conditions for EZH2 were as follows: 50 mM Tris Buffer pH 8.5, 1 mM DTT, 69 uM Brij-35 detergent, 5.0 mM MgCl2, 0.1 mg/mL BSA, 0.2 uM ^3H SAM, 0.2 uM biotinylated oligonucleosomes, 3.6 uM H3K27me3 peptide and 2 nM EZH2.
Compound IC50 measurements were obtained as follows: Compounds were first dissolved in 100% DMSO as 10 mM stock solutions. […] A 12.5 uL volume of the HMT enzyme, H3K27me3 peptide and oligonucleosome substrate in assay buffer was added to each well of the assay plate using a Multidrop Combi (ThermoFisher). Compounds were pre-incubated with the enzyme for 20 min, followed by initiation of the methyltransferase reaction by addition of 12.5 uL of 3H SAM in assay buffer (final volume=25 uL). The final concentrations of compounds ranged from a top default concentration of 80 uM down to 0.16 uM in ten 2-fold dilution steps. Reactions were carried out for 60 minutes and quenched with 20 uL per well of 1.96 mM SAH, 50 mM Tris PH 8.5, 200 mM EDTA. Stopped reactions were transferred to SAV coated Flashplates (Perkin Elmer), incubated for 120 min, washed with a plate washer, and then read on the TopCount NXT (1.0 min/well) to measure the amount of methylhistone product formed during the reaction. The amount of methylhistone product was compared with the amount of product formed in the 0% and 100% inhibition control wells allowing the calculation of % Inhibition in the presence of the individual compounds at various concentrations. IC50's were computed using a 4 parameter fit non-linear curve fitting software package (XLFIT, part of the database package, ActivityBase (IDBS)) where the four parameters were IC50, Hill slope, pre-transitional baseline (0% INH), and post-transitional baseline (100% INH); with the latter two parameters being fixed to zero and 100%, respectively, by default.

EZH2, sequence (Q15910 whole entry): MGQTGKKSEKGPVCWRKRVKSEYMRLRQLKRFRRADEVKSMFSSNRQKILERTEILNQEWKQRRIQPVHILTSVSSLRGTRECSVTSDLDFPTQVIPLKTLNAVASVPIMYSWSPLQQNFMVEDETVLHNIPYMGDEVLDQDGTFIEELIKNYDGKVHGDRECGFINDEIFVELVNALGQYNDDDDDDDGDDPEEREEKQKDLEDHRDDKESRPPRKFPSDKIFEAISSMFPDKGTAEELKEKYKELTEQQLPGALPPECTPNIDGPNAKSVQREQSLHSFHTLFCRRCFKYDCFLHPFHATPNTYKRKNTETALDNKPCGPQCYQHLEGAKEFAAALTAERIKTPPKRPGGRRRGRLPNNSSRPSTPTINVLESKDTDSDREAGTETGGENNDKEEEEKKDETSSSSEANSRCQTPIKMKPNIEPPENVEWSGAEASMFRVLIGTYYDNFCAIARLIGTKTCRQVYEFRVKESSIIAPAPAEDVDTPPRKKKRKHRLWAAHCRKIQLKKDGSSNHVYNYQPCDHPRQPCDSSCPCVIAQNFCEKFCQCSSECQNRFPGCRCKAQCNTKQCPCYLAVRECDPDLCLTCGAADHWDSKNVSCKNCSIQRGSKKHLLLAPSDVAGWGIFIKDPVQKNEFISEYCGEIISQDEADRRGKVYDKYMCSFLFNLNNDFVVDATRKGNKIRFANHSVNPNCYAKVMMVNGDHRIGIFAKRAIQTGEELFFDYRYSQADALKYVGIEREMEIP
EZH2, sequence (O75530 whole entry partner): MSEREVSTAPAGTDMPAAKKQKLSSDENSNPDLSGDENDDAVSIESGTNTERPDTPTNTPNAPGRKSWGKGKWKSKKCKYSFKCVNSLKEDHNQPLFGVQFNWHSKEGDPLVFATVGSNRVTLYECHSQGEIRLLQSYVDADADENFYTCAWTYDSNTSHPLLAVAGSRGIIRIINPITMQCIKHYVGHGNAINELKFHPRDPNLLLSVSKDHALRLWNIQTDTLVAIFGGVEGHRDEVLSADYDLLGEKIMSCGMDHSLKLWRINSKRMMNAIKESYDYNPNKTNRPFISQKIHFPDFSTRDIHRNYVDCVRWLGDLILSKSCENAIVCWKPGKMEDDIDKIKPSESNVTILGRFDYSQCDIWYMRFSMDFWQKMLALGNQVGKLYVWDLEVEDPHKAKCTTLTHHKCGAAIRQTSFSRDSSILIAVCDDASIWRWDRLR
EZH2, sequence (Q15022 whole entry partner): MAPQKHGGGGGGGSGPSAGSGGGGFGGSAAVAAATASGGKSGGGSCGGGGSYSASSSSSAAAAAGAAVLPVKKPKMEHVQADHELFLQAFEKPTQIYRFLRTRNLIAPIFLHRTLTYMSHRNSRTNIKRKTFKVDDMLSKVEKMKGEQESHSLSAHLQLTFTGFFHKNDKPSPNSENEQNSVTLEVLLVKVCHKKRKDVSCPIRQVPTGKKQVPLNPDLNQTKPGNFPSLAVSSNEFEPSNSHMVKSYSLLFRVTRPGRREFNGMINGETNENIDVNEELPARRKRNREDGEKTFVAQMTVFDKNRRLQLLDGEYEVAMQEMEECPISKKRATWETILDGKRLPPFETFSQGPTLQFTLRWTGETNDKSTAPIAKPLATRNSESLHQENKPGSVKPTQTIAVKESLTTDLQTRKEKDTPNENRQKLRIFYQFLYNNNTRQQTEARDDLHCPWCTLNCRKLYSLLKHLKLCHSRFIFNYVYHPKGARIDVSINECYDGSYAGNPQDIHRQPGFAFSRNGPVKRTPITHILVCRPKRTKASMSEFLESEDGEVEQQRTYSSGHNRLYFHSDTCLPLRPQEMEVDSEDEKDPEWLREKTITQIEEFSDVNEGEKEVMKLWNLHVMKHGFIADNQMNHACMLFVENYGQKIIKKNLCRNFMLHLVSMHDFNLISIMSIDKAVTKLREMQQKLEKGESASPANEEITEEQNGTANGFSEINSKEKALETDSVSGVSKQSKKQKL

IC50, > 80 µM:
CC1(C)CC(NC(=O)c2ccc(OCCc3ccccc3)cc2)CC(C)(C)N1 [Compound I-84]
Cc1cccc(OCc2ccc(C(=O)NC3CC(C)(C)NC(C)(C)C3)cc2)n1 [Compound I-85, 4-((6-methylpyridin-2-yloxy)methyl)-N-(2,2,6,6-tetramethylpiperidin-4-yl)benzamide]
CC1(C)CC(NC(=O)c2ccc(Oc3ccc(F)cc3)cc2)CC(C)(C)N1 [Compound I-86]
Cc1ccc(Oc2ccc(C(=O)NC3CC(C)(C)NC(C)(C)C3)cc2)cc1C [Compound I-87]
CC1(C)CC(NC(=O)c2ccc(OCc3cccc(F)c3)cc2)CC(C)(C)N1 [Compound I-88]
Cc1ccc(Oc2ccc(C(=O)NC3CC(C)(C)NC(C)(C)C3)cc2)cn1 [Compound I-89]
CC1(C)CC(NC(=O)c2ccc(OCc3ccccc3F)cc2)CC(C)(C)N1 [Compound I-90]
CC1(C)CC(NC(=O)c2ccc(Oc3ccc(Cl)cc3)cc2)CC(C)(C)N1 [Compound I-91]
Cc1ccc(Oc2ccc(C(=O)NC3CC(C)(C)NC(C)(C)C3)cc2)cc1 [Compound I-92]
CC1(C)CC(NC(=O)c2ccc(Oc3ccc(Br)cc3)cc2)CC(C)(C)N1 [Compound I-93]
CC1(C)CC(NC(=O)c2cccc(Oc3ccccc3)c2)CC(C)(C)N1 [Compound I-94]
CC1(C)CC(NC(=O)c2ccccc2Oc2ccccc2)CC(C)(C)N1 [Compound I-95]
CC(C)NC(=O)c1ccc(Oc2ccccc2)cc1 [Compound I-96]
COc1ccc(Oc2ccc(C(=O)NC3CC(C)(C)NC(C)(C)C3)cc2)cc1 [Compound I-97]
O=C(c1ccc(Oc2ccccc2)cc1)N1CCN(c2ccccc2)CC1 [Compound I-99]
O=C(N[C@H]1CCN(Cc2ccccc2)C1)c1ccc(Oc2ccccc2)cc1 [Compound I-100]
O=C(NCCc1cccnc1)c1ccc(Oc2ccccc2)cc1 [Compound I-102]
CC1(C)CC(NC(=O)c2ccc(Oc3ncccc3C(N)=O)cc2)CC(C)(C)N1 [Compound I-103, 2-(4-(2,2,6,6-Tetramethylpiperidin-4-ylcarbamoyl)phenoxy)nicotinamide]
CC1(C)CC(NC(=O)c2ccc(Nc3ccccc3)nc2)CC(C)(C)N1 [Compound I-104, 6-(Phenylamino)-N-(2,2,6,6-tetramethylpiperidin-4-yl)nicotinamide]
CC1(C)CC(NC(=O)c2cccc(-c3ccccc3)c2)CC(C)(C)N1 [Compound I-105]
CC1(C)CC(NC(=O)c2ccc(CNc3ccccc3)cc2)CC(C)(C)N1 [Compound I-106, 4-((Phenylamino)methyl)-N-(2,2,6,6-tetramethylpiperidin-4-yl)benzamide]
CC1(C)CC(NC(=O)c2ccc(Nc3ccccc3)cc2)CC(C)(C)N1 [Compound I-107]
CN(c1ccccc1)c1ccc(C(=O)NC2CC(C)(C)NC(C)(C)C2)cc1 [Compound I-108, 4-(Methyl(phenyl)amino)-N-(2,2,6,6-tetramethylpiperidin-4-yl)benzamide]
COc1ccnc(Oc2ccc(C(=O)NC3CC(C)(C)NC(C)(C)C3)cc2)n1 [Compound I-109]
CC1(C)CC(NC(=O)c2ccc(Oc3ncccc3F)cc2)CC(C)(C)N1 [Compound I-110]
CC1(C)CC(NC(=O)c2cccc(COc3ccccc3)c2)CC(C)(C)N1 [Compound I-111]
CC1(C)CC(NC(=O)c2ccc(COc3ccncc3)cc2)CC(C)(C)N1 [Compound I-112]
CN1CCC(NC(=O)c2ccc(Oc3ccccc3)cc2)CC1 [Compound I-113]
CN1C2CCC1CC(NC(=O)c1ccc(Oc3ccccc3)cc1)C2 (centres unmarked) [Compound I-114]
Cc1cc(C)cc(OCc2cccc(C(=O)NC3CC(C)(C)NC(C)(C)C3)c2)c1 [Compound I-115]
O=C(NC1CCN(C(=O)c2ccccc2)CC1)c1ccc(Oc2ccccc2)cc1 [Compound I-116]
COC(=O)c1ccc(COc2ccc(C(=O)NC3CC(C)(C)NC(C)(C)C3)cc2)cc1 [Compound I-117]
CC(Oc1ccccc1)c1ccc(C(=O)NC2CC(C)(C)NC(C)(C)C2)cc1 (centres unmarked) [Compound I-118, 4-(1-phenoxyethyl)-N-(2,2,6,6-tetramethylpiperidin-4-yl)benzamide]
Cc1cc(C)cc(Oc2ccc(C(=O)NC3CC(C)(C)NC(C)(C)C3)cc2)c1 [Compound I-119]
COc1ccc(Oc2ccc(C(=O)NC3CC(C)(C)NC(C)(C)C3)cc2)c(C(=O)O)c1 [Compound I-120, 2-(4-(2,2,6,6-tetramethylpiperidin-4-ylcarbamoyl)phenoxy)-5-methoxy benzoic acid]
CNc1cccc(OCc2ccc(C(=O)NC3CC(C)(C)NC(C)(C)C3)cc2)n1 [Compound I-121, 4-(((6-(methylamino)pyridin-2-yl)oxy)methyl)-N-(2,2,6,6-tetramethylpiperidin-4-yl)benzamide]
CC1(C)CC(NC(=O)c2ccc(Oc3ccccc3)cc2O)CC(C)(C)N1 [Compound I-122]
CC1(C)CC(NC(=O)c2ccc(Oc3ccccc3O)cc2)CC(C)(C)N1 [Compound I-123]
Cc1cc(Oc2ccccc2)ccc1C(=O)NC1CC(C)(C)NC(C)(C)C1 [Compound I-124, 2-methyl-4-phenoxy-N-(2,2,6,6-tetramethylpiperidin-4-yl)-benzamide]
CN(C(=O)c1ccc(Oc2ccccc2)cc1)C1CCNCC1 [Compound I-125, N-Methyl-4-phenoxy-N-(piperidin-4-yl)benzamide 2,2,2-trifluoroacetate]
CN(C(=O)c1ccc(COc2cccc(Br)c2)cc1)C1CCNCC1 [Compound I-126]
CC1(C)CC(NC(=O)c2ccc(Cc3ccccc3)cc2)CC(C)(C)N1 [Compound I-127, 4-Benzyl-N-(2,2,6,6-tetramethylpiperidin-4-yl)benzamide]
CC1(C)CC(NC(=O)c2ccc(COc3ccnc4ccccc34)cc2)CC(C)(C)N1 [Compound I-128]
CC1(C)CC(NC(=O)c2ccc(COc3cccc(-c4ccc(NCCN5CCOCC5)nc4)c3)cc2)CC(C)(C)N1 [Compound I-129]
CC1(C)CC(NC(=O)c2cccc(COc3cccc(Br)c3)c2)CC(C)(C)N1 [Compound I-130]
CCc1cccc(Oc2ccc(C(=O)NC3CC(C)(C)NC(C)(C)C3)cc2)c1 [Compound I-131]
CN(C)CCNC(=O)c1ccc(Oc2ccccc2)cc1 [Compound I-132]
CN(Cc1ccccc1)C(=O)c1ccc(Oc2ccccc2)cc1 [Compound I-133]
O=C(NC1CCCCC1)c1ccc(Oc2ccccc2)cc1 [Compound I-134]
CC(C)c1ccc(C(=O)NC2CC(C)(C)NC(C)(C)C2)cc1 [Compound I-135]
CC(C)Oc1ccc(C(=O)NC2CC(C)(C)NC(C)(C)C2)cc1 [Compound I-136]
CC1(C)CC(NC(=O)c2ccc3ccccc3c2)CC(C)(C)N1 [Compound I-137]
CC1(C)CC(NC(=O)c2ccc(C(C)(C)C)cc2)CC(C)(C)N1 [Compound I-138]
CC(C)CNC(=O)c1ccc(Oc2ccccc2)cc1 [Compound I-139]
CN(C)CCCNC(=O)c1ccc(Oc2ccccc2)cc1 [Compound I-140]
O=C(NCc1ccccc1)c1ccc(Oc2ccccc2)cc1 [Compound I-141]
